Laboratory results published in the supplement of paper PMC12533247.
± gives the standard deviation of the averaged measurements.

Tests used:
[1] = tested on: primary keratinocytes; assay: % change in live cells vs DMSO control; higher = less cytotoxic; details: time (h post treatment): 20
Protocol: (§1)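 Cytotoxicity in uninfected 2D primary donor keratinocytes (20 h post treatment) and fibroblasts (48 h post treatment), measured with NucSpot live/dead dyes on IncuCyte. Live cells are normalised to the 0.2% DMSO control and shown as % change. Three biological replicates for each of donors 3, 4 and 5.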

[2] = tested on: primary dermal fibroblasts; assay: as above; details: time (h post treatment): 48
Protocol: as §1

Nc1ccn([C@@H]2O[C@H](CO)[C@@H](O)C2(F)F)c(=O)n1 [Gemcitabine]
% change in live cells [%]
Details	0.082305 µM	0.246914 µM	0.740741 µM	2.22222 µM	6.66667 µM	20 µM	60 µM
[1], donor: 3	-37.7 ± 5.5	-45.3 ± 6.5	-49.7 ± 3.8	-52.3 ± 7.8	-57.3 ± 9.4	-75.7 ± 6.8	-77.7 ± 2.3
[1], donor: 4	-63 ± 4.6	-67.7 ± 12	-63.7 ± 14	-63.7 ± 13	-74.3 ± 11	-76.3 ± 13	-87.3 ± 6.3
[1], donor: 5	-51.3 ± 3.5	-52.7 ± 5.1	-51.3 ± 8.6	-55.7 ± 6.5	-61 ± 7.8	-70 ± 7.2	-78.7 ± 6.7
[2], donor: 3	-21.3 ± 11	-23.7 ± 14	-27.3 ± 15	-30.3 ± 16	-33.3 ± 19	-38 ± 12	-43.7 ± 22
[2], donor: 4	-9.33 ± 5.5	-9.33 ± 9.3	-15.7 ± 16	-11.7 ± 11	-9.67 ± 9.6	-18 ± 16	-19.7 ± 12
[2], donor: 5	-5 ± 8.2	-11.3 ± 12	-21.3 ± 9.9	-26.3 ± 12	-34.3 ± 12	-43.3 ± 14	-52.7 ± 5.8

C=CC(=O)N1CC/C(=C\c2ccc(F)c([N+](=O)[O-])c2)C(=O)/C(=C/c2ccc(F)c([N+](=O)[O-])c2)C1 [VLX1570]
% change in live cells [%]
Details	0.082305 µM	0.246914 µM	0.740741 µM	2.22222 µM	6.66667 µM	20 µM	60 µM
[1], donor: 3	-11.3 ± 3.2	-24 ± 11	-37.7 ± 22	-54 ± 28	-58.3 ± 14	-85.3 ± 12	-95 ± 1.7
[1], donor: 4	-13.3 ± 11	-18 ± 24	-13 ± 14	-9.33 ± 30	-66 ± 15	-70 ± 14	-99.33 ± 0.58
[1], donor: 5	-6.33 ± 2.5	-10 ± 14	-11 ± 16	-10.7 ± 7.6	-39 ± 11	-74.7 ± 4	-97.67 ± 0.58
[2], donor: 3	-13 ± 9.6	-15.3 ± 9.5	-24 ± 6.1	-46.7 ± 4.7	-100 ± 1.7	-101.3 ± 0.58	-98.7 ± 1.5
[2], donor: 4	2.33 ± 4	0 ± 3	-1.33 ± 6.1	-3 ± 7.9	-3 ± 17	-44 ± 20	-116 ± 4.6
[2], donor: 5	2 ± 9.2	4.67 ± 17	4.33 ± 22	-1.67 ± 24	-20.7 ± 19	-98 ± 1	-96.7 ± 1.5
